In PubChem BioAssay (NCI):
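Following 48 hours of exposure in 96-well plates, responses at five concentrations were used to interpolate endpoints linearly. The concentration for full growth arrest is given as TGI.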

Assays:
Experiment in all cases: inhibition of tumour cell growth, NCI panel, 48 h
KM20L2 colon = test system: KM20L2 colon
SNB-78 CNS = test system: SNB-78 CNS
RXF-631 renal = test system: RXF-631 renal

Row | Structure (SMILES) | TGI (KM20L2 colon) [µM] | TGI (SNB-78 CNS) [µM] | TGI (RXF-631 renal) [µM]
1 | N#CN=C(N)NC(=O)/C=C/C=C/c1ccc(Cl)cc1 | > 100 | > 100 | –
2 | CC(C)(C)N1C(C(=O)c2ccccc2)C1c1ccccc1 (stereo unspecified) | – | > 100 | > 100
3 | CC(=O)OC(C)C1C2=C(C(=O)CC1(C)O)C(=O)c1c(ccc(-c3ccc4c(c3O)C(=O)C3=C(C4=O)C(C(C)OC(C)=O)C(C)(O)CC3=O)c1O)C2=O (stereo unspecified) | 4.59 | 9.63 | –
4 | COc1ccc(C[C@H](N)C(=O)NC2C(CO)OC(n3cnc4c(N(C)C)ncnc43)C2O)cc1 (stereo partly specified) | – | 0.758 | –
5 | CCOC(=O)C12CCC(=O)C=C1[C@@H](C)C(=O)CC2 (stereo partly specified) | > 100 | – | –
6 | CSc1nc(Cl)c(Br)c(Sc2nc(N)nc3nc[nH]c23)n1 | 18.8 | – | –
7 | NC(=O)C(N)=O | > 100 | > 100 | –
